Here are results for 18 compounds from BindingDB's records for doi:10.7270/Q2CV4GCW (The Scripps Research Institute Molecular Screening Center, 2014).

SMILES strings stand for the structures.

This assay addresses T1, Group 3 secretory phospholipase A2 (Homo sapiens, UniProt Q9NZ20).
T1 sequence (Q9NZ20 whole entry): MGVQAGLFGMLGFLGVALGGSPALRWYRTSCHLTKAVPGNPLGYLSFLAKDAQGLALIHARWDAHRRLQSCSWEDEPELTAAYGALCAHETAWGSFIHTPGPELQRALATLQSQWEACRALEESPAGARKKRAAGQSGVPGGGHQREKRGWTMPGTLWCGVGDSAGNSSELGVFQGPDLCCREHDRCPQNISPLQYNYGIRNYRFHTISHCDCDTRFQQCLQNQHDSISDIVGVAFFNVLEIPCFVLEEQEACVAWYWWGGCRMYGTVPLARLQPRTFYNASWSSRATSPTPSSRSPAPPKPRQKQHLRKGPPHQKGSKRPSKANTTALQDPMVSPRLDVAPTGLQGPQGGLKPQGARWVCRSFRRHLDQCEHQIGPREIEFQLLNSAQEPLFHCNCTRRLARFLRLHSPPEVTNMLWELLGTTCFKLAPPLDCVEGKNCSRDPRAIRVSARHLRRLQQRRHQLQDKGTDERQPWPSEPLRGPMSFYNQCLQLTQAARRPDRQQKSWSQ
The assay is described as follows: human group III sPLA2 inhibitors, dose response, biochemical, QFRET, IC50 (AID 743457).

As to `Cc1noc(/C=C/N(C)C)c1S(=O)(=O)N1CCCC(C(=O)NCc2ccco2)C1` (stereo not drawn), the midpoint of inhibition, the IC50, lay at 122 µM.
On to `COCCN1C(=O)/C(=C/c2c(OC)cc(OC)cc2OC)C(=O)N(c2ccccc2)C1=O`, for which the IC50 (commonly the concentration needed to halve the response being measured) amounted to 100 µM.
`NS(=O)(=O)c1ccc(Nc2nc3ccccc3nc2NS(=O)(=O)c2cccc([N+](=O)[O-])c2)cc1` had a half-inhibitory concentration (IC50) of 42.5 µM.
`Cc1c(Cl)cccc1N=C(S)NCCc1ccc(S(N)(=O)=O)cc1` gave an IC50 of 122 µM. This IC50 lies about 2.9-fold higher than the previous one.
The same measure for `COc1ccc(C=NNC(=O)CSc2n[nH]c(=O)[nH]c2=O)cc1` [2-[[3,5-bis(oxidanylidene)-2H-1,2,4-triazin-6-yl]sulfanyl]-N-[(4-methoxyphenyl)methylideneamino]ethanamide]: 48 µM; for `COC(=O)CCC(=O)OC1(C)C(=O)C2=CN(CCCOC(C)C)C(c3ccc(OC)cc3)=CC2=C(Br)C1=O` (stereo not drawn) [4-O-[5-bromo-3-(4-methoxyphenyl)-7-methyl-6,8-dioxo-2-(3-propan-2-yloxypropyl)isoquinolin-7-yl] 1-O-methyl butanedioate]: 122 µM; for `Cc1n[nH]c(N=Nc2ccc(O)cc2)n1` [4-[(5-methyl-1H-1,2,4-triazol-3-yl)hydrazinylidene]cyclohexa-2,5-dien-1-one]: 20.5 µM.
Next, `Cc1ccc(O)c(-c2cc(C(=O)Nc3ccc(S(=O)(=O)Nc4nccc(C)n4)cc3)[nH]n2)c1` [5-(2-Hydroxy-5-methyl-phenyl)-2H-pyrazole-3-carboxylic acid [4-(4-methyl-pyrimidin-2-ylsulfamoyl)-phenyl]-amide]: 122 µM; `COc1cc(/C=C(/C#N)c2nc3ccccc3[nH]2)ccc1OCc1ccc(C(=O)O)o1` [5-[[4-[(Z)-2-(1H-benzimidazol-2-yl)-2-cyanoethenyl]-2-methoxyphenoxy]methyl]-2-furancarboxylic acid]: 66.3 µM.
In turn, `CSCc1nc2sc(C(=O)Nc3nc(C)cs3)c(C)c2c(=O)[nH]1` [5-methyl-2-(methylsulfanylmethyl)-N-(4-methyl-1,3-thiazol-2-yl)-4-oxo-3H-thieno[2,3-d]pyrimidine-6-carboxamide] had an IC50 of 122 µM.
`O=C1c2ccccc2SC1/C=N/c1cc([N+](=O)[O-])ccc1O` (stereo not drawn) [(2Z)-2-[[(5-nitro-2-oxidanyl-phenyl)amino]methylidene]-1-benzothiophen-3-one] showed an IC50 of 122 µM.
`CCN(CC)c1nc2c3c(nc4c(c3c1C#N)CC(=O)N4c1ccc(Cl)cc1)NC(C)=N2` [MLS000389664] had an IC50 of 25 µM. This IC50 lies about 4.9-fold lower than the previous one.
The compound `CCCCn1c(NS(=O)(=O)c2ccccc2)c(C(=O)OCC)c2nc3ccccc3nc21` [MLS000589117] had a half-inhibitory concentration (IC50) of 40.6 µM.
In turn, `Cc1ccc(-n2ncc3c(NNC(=O)c4ccco4)ncnc32)cc1C` [MLS001235991] registered an IC50 of 122 µM.
Turning to `O=C1C([N+](=O)[O-])=CC(Cl)=CC1/C=N/NC(=O)C(O)(c1ccccc1)c1ccccc1` (stereo not drawn) [N''''-[(E)-(3-chloro-5-nitro-6-oxocyclohexa-2,4-dien-1-ylidene)methyl]-2-hydroxy-2,2-diphenylacetohydrazide], the half-inhibitory concentration (IC50) amounted to 32.5 µM.
In turn, `C=CCSC(N)=NN=CC1C=C(Br)C=C([N+](=O)[O-])C1=O` (stereo not drawn) [N''-[[(E)-(3-bromo-5-nitro-6-oxo-1-cyclohexa-2,4-dienylidene)methyl]amino]carbamimidothioic acid prop-2-enyl ester] gave an IC50 of 40.6 µM.
Next, `Cc1ccc(C(=O)Nc2nc(C(C)(C)C)cs2)s1` [N-(4-tert-butyl-2-thiazolyl)-5-methyl-2-thiophenecarboxamide]: 122 µM; `Cc1ccc(C(=O)n2c3ccccc3c3ccccc32)cc1` [carbazol-9-yl-(4-methylphenyl)methanone]: 30.3 µM.
